Key:
Assay type in all cases: cell-based
[1] = tested on: HL-60; assay: Cytotoxicity against human HL60 cells at 10 ug/mL by trypan blue assay after 24 hrs; details: hl-60, 24 h
[2] = tested on: HL-60; assay: Cytotoxicity against human HL60 cells at 10 ug/mL by trypan blue assay after 48 hrs; details: hl-60, 48 h
[3] = tested on: HL-60; assay: Cytotoxicity against human HL60 cells at 10 ug/mL by trypan blue assay after 72 hrs; details: hl-60, 72 h
[4] = tested on: HL-60; assay: Cytotoxicity against human HL60 cells at 100 ug/mL by trypan blue assay after 24 hrs; details: hl-60, 24 h
[5] = tested on: HL-60; assay: Cytotoxicity against human HL60 cells at 100 ug/mL by trypan blue assay after 48 hrs; details: hl-60, 48 h
[6] = tested on: HL-60; assay: Cytotoxicity against human HL60 cells at 100 ug/mL by trypan blue assay after 72 hrs; details: hl-60, 72 h
[7] = tested on: HL-60; assay: Cytotoxicity against human HL60 cells at 1000 ug/mL by trypan blue assay after 24 hrs; details: hl-60, 24 h
[8] = tested on: HL-60; assay: Cytotoxicity against human HL60 cells at 1000 ug/mL by trypan blue assay after 48 hrs; details: hl-60, 48 h
[9] = tested on: HL-60; assay: Cytotoxicity against human HL60 cells at 1000 ug/mL by trypan blue assay after 72 hrs; details: hl-60, 72 h
[10] = tested on: K562; assay: Cytotoxicity against human K562 cells at 10 ug/mL by trypan blue assay after 24 hrs; details: k562, 24 h
[11] = tested on: HL-60; assay: Cytotoxicity against human HL60 cells at 10000 ug/mL by trypan blue assay after 24 hrs; details: hl-60, 24 h
[12] = tested on: HL-60; assay: Cytotoxicity against human HL60 cells at 10000 ug/mL by trypan blue assay after 48 hrs; details: hl-60, 48 h
[13] = tested on: HL-60; assay: Cytotoxicity against human HL60 cells at 10000 ug/mL by trypan blue assay after 72 hrs; details: hl-60, 72 h
[14] = tested on: K562; assay: Cytotoxicity against human K562 cells at 10 ug/mL by trypan blue assay after 48 hrs; details: k562, 48 h
[15] = tested on: K562; assay: Cytotoxicity against human K562 cells at 10 ug/mL by trypan blue assay after 72 hrs; details: k562, 72 h
[16] = tested on: K562; assay: Cytotoxicity against human K562 cells at 100 ug/mL by trypan blue assay after 24 hrs; details: k562, 24 h
[17] = tested on: K562; assay: Cytotoxicity against human K562 cells at 100 ug/mL by trypan blue assay after 48 hrs; details: k562, 48 h
[18] = tested on: K562; assay: Cytotoxicity against human K562 cells at 100 ug/mL by trypan blue assay after 72 hrs; details: k562, 72 h
[19] = tested on: K562; assay: Cytotoxicity against human K562 cells at 1000 ug/mL by trypan blue assay after 24 hrs; details: k562, 24 h
[20] = tested on: K562; assay: Cytotoxicity against human K562 cells at 1000 ug/mL by trypan blue assay after 48 hrs; details: k562, 48 h
[21] = tested on: K562; assay: Cytotoxicity against human K562 cells at 1000 ug/mL by trypan blue assay after 72 hrs; details: k562, 72 h
[22] = tested on: K562; assay: Cytotoxicity against human K562 cells at 10000 ug/mL by trypan blue assay after 24 hrs; details: k562, 24 h
[23] = tested on: K562; assay: Cytotoxicity against human K562 cells at 10000 ug/mL by trypan blue assay after 48 hrs; details: k562, 48 h
[24] = tested on: K562; assay: Cytotoxicity against human K562 cells at 10000 ug/mL by trypan blue assay after 72 hrs; details: k562, 72 h

[Cl-].c1ccc([P+](c2ccccc2)(c2ccccc2)c2ccccc2)cc1 [TETRAPHENYLPHOSPHONIUM CHLORIDE]
Activity [1]: 1% | Activity [2]: 100% | Activity [3]: 100% | Activity [4]: 4.5% | Activity [5]: 100% | Activity [6]: 100% | Activity [7]: 100% | Activity [8]: 100% | Activity [9]: 100% | Activity [10]: 56.8% | Activity [11]: 100% | Activity [12]: 100% | Activity [13]: 100% | Activity [14]: 100% | Activity [15]: 100% | Activity [16]: 41.8% | Activity [17]: 100% | Activity [18]: 100% | Activity [19]: 100% | Activity [20]: 100% | Activity [21]: 100% | Activity [22]: 100% | Activity [23]: 100% | Activity [24]: 100%

Reference: ChEMBL document CHEMBL1142966, “Enhanced antileukemic activity of the novel complex 2,5-dihydroxybenzoate molybdenum(VI) against 2,5-dihydroxybenzoate, polyoxometalate of Mo(VI), and tetraphenylphosphonium in the human HL-60 and K562 leukemic cell lines” (J Med Chem, 2007)
